Earlier results, collected in patent US8389572B2, “Therapeutic delivery of carbon monoxide” (hemoCORM Limited, priority 2006, dated 2013).

Settings: disclosed in WO 02/092075 and WO 2004/045598

In the case of F[P-](F)(F)(F)(F)F.O=[C]=[Fe](=[C]=O)(=[C]=O)[CH]1C=CC=C1 [[CpFe(CO)3]PF6], the “precipitate during release of CO” value is listed as “produced a precipitate during release of CO” and the solubility (solvent) is listed as “soluble in dimethylsulphoxide (DMSO)”.
